These results are taken from ChEMBL document CHEMBL4406865, “Design, synthesis and biological evaluation of novel semicarbazone-selenochroman-4-ones hybrids as potent antifungal agents” (2019).

Values after ≈ are worked out from the molar mass of the structure shown. A value given as a limit tells only on which side of the number the result lay.

As usually defined, the MIC90 is an inhibitory concentration at the 90% level, which refers to growth in some studies and to a panel of isolates in others.

Format in all cases: functional
Test [1] concerns Candida albicans. Kind of test: Antifungal activity against fluconazole-resistant Candida albicans isolate 103 incubated for 24 hrs by CLSI protocol based microbroth dilution method. As to conditions: isolate 103, 24 h. A general note: In broth dilution the organism is exposed to a series of concentrations in liquid medium.
The test system of test [2] is Candida albicans. Kind of test: Antifungal activity against fluconazole-resistant Candida albicans CaR incubated for 24 hrs by CLSI protocol based microbroth dilution method.
For test [3], the system named is Aspergillus fumigatus. As to the kind of experiment: Antifungal activity against Aspergillus fumigatus CGMCC 3.7795 measured at 72 hrs by CLSI protocol based microbroth dilution method. To be noted: CGMCC 3.7795, 72 h.
Test [4] deals with Candida albicans. Kind of test: Antifungal activity against fluconazole-resistant Candida albicans isolate 17 incubated for 24 hrs by CLSI protocol based microbroth dilution method. As to conditions: isolate 17, 24 h.
The test system of test [5] is Candida albicans. Kind of test: Antifungal activity against Candida albicans SC5314 incubated for 24 hrs by CLSI protocol based microbroth dilution method. To be noted: SC5314, 24 h.
Test [6] deals with Candida albicans. As to the kind of experiment: Antifungal activity against fluconazole-resistant Candida albicans isolate 100 incubated for 24 hrs by CLSI protocol based microbroth dilution method. To be noted: isolate 100, 24 h.
Test [7] relates to Cryptococcus neoformans. Kind of test: Antifungal activity against Cryptococcus neoformans CGMCC2.3161 measured at 72 hrs by CLSI protocol based microbroth dilution method. To be noted: CGMCC2.3161, 72 h.
For test [8], the system named is [Candida] zeylanoides. As to the kind of experiment: Antifungal activity against Candida zeylanoides CGMCC2.3739 measured at 24 hrs by CLSI protocol based microbroth dilution method. To be noted: Dujonia zeylanoides, CGMCC2.3739, 24 h.
Test [9] concerns Candida albicans. Kind of test: Antifungal activity against Candida albicans CPCC400616 measured at 24 hrs by CLSI protocol based microbroth dilution method. As to conditions: CPCC400616, 24 h.

In the case of `NNC(=S)N/N=C1\CC[Se]c2ccc(F)cc21`, the MIC90 in test [1] was 2 µg/mL (≈ 6.3 µM); in test [2], 8 µg/mL (≈ 25.2 µM); in test [3], greater than 128 µg/mL; in test [4], 8 µg/mL (≈ 25.2 µM); in [5] it was 4 µg/mL (≈ 12.6 µM); in test [6], 4 µg/mL (≈ 12.6 µM). The MIC90 was 4 µg/mL (≈ 12.6 µM) in test [7], 64 µg/mL (≈ 202 µM) in [8] and 2 µg/mL (≈ 6.3 µM) in test [9].
As for `NNC(=S)N/N=C1\CC[Se]c2ccccc21`, the MIC90 in [1] is greater than 128 µg/mL; in [2], greater than 128 µg/mL; in test [3], greater than 128 µg/mL; in test [4], 64 µg/mL (≈ 214 µM); in test [5], 16 µg/mL (≈ 53.5 µM); in [6], greater than 128 µg/mL. In addition, the MIC90 was found to be 0.5 µg/mL (≈ 1.67 µM) in test [7], 1 µg/mL (≈ 3.34 µM) in test [8] and 8 µg/mL (≈ 26.7 µM) in [9].
`OC(Cn1cncn1)(Cn1cncn1)c1ccc(F)cc1F` [FLUCONAZOLE]: the MIC90 was greater than 128 µg/mL in test [1]; greater than 128 µg/mL in test [2]; greater than 128 µg/mL in test [3]; 128 µg/mL (≈ 418 µM) in [4]; 1 µg/mL (≈ 3.27 µM) in test [5]; 128 µg/mL (≈ 418 µM) in [6]. Moreover, the MIC90 in [7] is 1 µg/mL (≈ 3.27 µM); in test [8], 2 µg/mL (≈ 6.53 µM); in test [9] it was 2 µg/mL (≈ 6.53 µM).
